In patent publication US10342773B2, “Composition containing dihomo-γ-linolenic acid (DGLA) as the active ingredient” (SUNTORY HOLDINGS LIMITED, priority 2005, dated 2019):
Read-outs that look alike come from different tables or passages of the source. Each block holds one molecule with its values, some of them ahead of it.

Key:
[1] = tested on: NC/Nga mice; settings: cited from earlier work
[2] = in vivo
Method: In order to clarify the relationship between the amount of DGLA orally ingested in humans and the internal DGLA level, the amount of DGLA orally ingested was investigated by examination of the diet, and after drawing blood, the amount of DGLA in the serum phospholipids was determined. The subjects were eleven healthy males aged 60-70, and were asked to keep a diary of the content of their diets. From the diary, the amount ingested by each food material was determined for meat, eggs, and seafood known to contain DGLA, and using the DGLA content of each food material calculated from “Fourth revised [sequence] […] From the amount of DGLA ingested per week, the mean amount of DGLA ingested per day was calculated for each person.
On the other hand, blood was drawn the day after the last entry of the diary, and for the serum phospholipid fractions obtained, the fatty acid composition was analyzed according to a standard method. Thus, from the serum the lipid component extracted by the Folch method, a standard method, and the lipid was fractionated on a thin layer chromatography (the developing solution is hexane/diethyl ether=7/3) to obtain the phospholipid fraction. […] The fatty acid methyl ester mixture was analyzed by a capillary gas chromatography to obtain DGLA (% by weight) in the total fatty acids in the serum phospholipid.

[3] = tested on: eosinophil migration; settings: guinea pigs, cited from earlier work

SMILES: CC/C=C\C/C=C\C/C=C\CCCCCCCC(=O)O [ALA, α-linolenic acid]
- prevention of atopic dermatitis (correction of dermatitis symptoms and blood IgE) ([1]; same mouse model, diet containing a large amount of ALA, exact dose not known): no effect of preventing atopic dermatitis

- amount of DGLA required to increase DGLA in serum phospholipid about 3% by weight [2]: about 100 mg per day
- increase of DGLA in the serum phospholipid with each increase of about 32 mg in the amount of DGLA ingested [2]: 1 % by weight
SMILES: CCCCC/C=C\C/C=C\C/C=C\CCCCCCC(=O)O [DGLA, dihomo-γ-linolenic acid]

SMILES: CC/C=C\C/C=C\C/C=C\C/C=C\C/C=C\C/C=C\CCC(=O)OCC [DHA ethylester]
- eosinophil migration in the delayed type allergy ([3]; intraperitoneal administration of 50 mg): can inhibit eosinophil migration

SMILES: CCCCC/C=C\C/C=C\C/C=C\CCCCC(=O)O [GLA, γ-linolenic acid]
- formation of atopic dermatitis and IgE production ([1]; NC/Nga mice, oral ingestion about 1250 mg/kg/day): effects of inhibiting the formation of atopic dermatitis and IgE production

SMILES: CC/C=C\C/C=C\C/C=C\C/C=C\C/C=C\CCCC(=O)OCC [EPA ethylester]
- eosinophil migration in the delayed type allergy ([3]; intraperitoneal administration of 100 mg): can inhibit eosinophil migration
